For test [1], the target named is Induced myeloid leukemia cell differentiation protein Mcl-1 (Homo sapiens, UniProt Q07820). It is filed as functional.
For the next test, the target named is Cytochrome P450 3A4 (Homo sapiens, UniProt P08684).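 Further: CYP3A4 tested as one member of a cytochrome P450 panel screen.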
A short description of test [2]: Shn3 3'UTR reporter inhibitors, dose response, cell-based, Clone20 osteoblasts, firefly luciferase, cherry-picked (AID 624132).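 Further: firefly luciferase luminescence from reporter carrying the Shn3 3'UTR in osteoblasts.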 It is filed as functional.
Test [3] in a line: HepG2 cell cytotoxicity, dose response, cytotoxicity control for Shn3 inhibitor project, CellTiter-Glo, cherry-picked (AID 624134). It is filed as functional, cell-based.
A short description of test [4]: control 3'UTR Renilla luciferase suppression, dose response, counter-screen for Shn3 inhibitor project, cell-based, Clone20-Shn3RL, cherry-picked (AID 624133). The test is classed as functional.
The target in the next test is T1, Protein skinhead-1 (Caenorhabditis elegans, UniProt P34707).
T1 sequence (P34707 whole entry): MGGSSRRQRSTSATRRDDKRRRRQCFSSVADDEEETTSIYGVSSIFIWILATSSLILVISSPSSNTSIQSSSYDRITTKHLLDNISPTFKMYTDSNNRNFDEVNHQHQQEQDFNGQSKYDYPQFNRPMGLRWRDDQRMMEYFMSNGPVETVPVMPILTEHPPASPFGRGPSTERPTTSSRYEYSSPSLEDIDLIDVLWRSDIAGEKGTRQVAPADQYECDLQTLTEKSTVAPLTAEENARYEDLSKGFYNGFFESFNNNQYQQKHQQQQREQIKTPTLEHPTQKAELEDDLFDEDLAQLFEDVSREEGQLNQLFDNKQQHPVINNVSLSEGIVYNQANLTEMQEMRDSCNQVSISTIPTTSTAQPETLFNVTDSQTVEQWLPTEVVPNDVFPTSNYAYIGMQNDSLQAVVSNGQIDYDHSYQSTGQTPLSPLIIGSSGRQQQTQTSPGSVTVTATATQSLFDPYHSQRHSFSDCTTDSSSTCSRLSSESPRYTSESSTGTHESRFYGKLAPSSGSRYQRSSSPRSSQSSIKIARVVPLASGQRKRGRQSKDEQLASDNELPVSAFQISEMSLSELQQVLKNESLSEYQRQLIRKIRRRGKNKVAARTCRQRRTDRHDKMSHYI
The test is classed as functional.

The target in test [5] is T2, Heat shock factor protein 1 (Mus musculus, UniProt P38532).
T2 sequence (P38532 whole entry): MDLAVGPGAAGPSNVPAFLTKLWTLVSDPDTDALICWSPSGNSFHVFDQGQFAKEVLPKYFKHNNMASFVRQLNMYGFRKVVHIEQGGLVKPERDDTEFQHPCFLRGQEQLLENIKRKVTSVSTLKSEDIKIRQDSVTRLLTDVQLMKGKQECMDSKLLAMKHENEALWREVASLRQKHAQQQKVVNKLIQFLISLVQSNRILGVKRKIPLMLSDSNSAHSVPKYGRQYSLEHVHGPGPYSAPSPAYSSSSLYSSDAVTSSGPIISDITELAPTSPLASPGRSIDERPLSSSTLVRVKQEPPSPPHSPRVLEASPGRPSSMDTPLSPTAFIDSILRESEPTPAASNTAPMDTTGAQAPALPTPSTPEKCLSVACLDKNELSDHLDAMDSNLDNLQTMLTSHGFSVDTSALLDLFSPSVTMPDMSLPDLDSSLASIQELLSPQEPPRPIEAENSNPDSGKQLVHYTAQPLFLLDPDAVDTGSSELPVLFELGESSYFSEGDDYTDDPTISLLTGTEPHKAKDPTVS
Briefly: HSF1 potentiators in luciferase reporter cells, confirmation, cell-based, NIH3T3, luminescence, dose retest (AID 435004).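 Further: stress induced by proteasome inhibitor MG132 added 30 min after compound; luciferase reporter driven by HSF1 response element in NIH3T3 cells; actives raise luminescence as potentiators of the MG132 stress response.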 It is filed as functional.

For another test, the target named is Nonstructural protein 1 (Influenza A virus, UniProt Q194T2). It is filed as functional, Influenza A virus (A/California/07/2009(H1N1)).
A further test addresses Large T antigen (Simian virus 40, UniProt P03070). It is filed as functional, Betapolyomavirus macacae.
Test [6] concerns the target T3, Ubiquitin-conjugating enzyme E2 N (Homo sapiens, UniProt P61088).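 Further: Dose-response confirmation in a TR-FRET assay detecting UBC13-driven polyubiquitin chain formation, inhibition measured.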
T3 sequence (P61088 whole entry): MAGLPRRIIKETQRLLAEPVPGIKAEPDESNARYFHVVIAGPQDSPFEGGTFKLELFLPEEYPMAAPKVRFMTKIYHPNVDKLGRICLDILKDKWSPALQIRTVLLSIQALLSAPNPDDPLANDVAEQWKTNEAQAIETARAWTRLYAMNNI
It is filed as functional.

For the next test, the target named is Cytochrome P450 2C9 (Homo sapiens, UniProt P11712).
The next test relates to H9c2. Briefly: cells. It is filed as functional, cell-based. Conditions: Rattus norvegicus, H9c2, Myocardium.
Test [7] deals with T4, Corticotropin-releasing factor receptor 2/Corticotropin-releasing factor-binding protein (Homo sapiens, UniProt P24387+Q13324).
T4 sequence (Q13324 whole entry): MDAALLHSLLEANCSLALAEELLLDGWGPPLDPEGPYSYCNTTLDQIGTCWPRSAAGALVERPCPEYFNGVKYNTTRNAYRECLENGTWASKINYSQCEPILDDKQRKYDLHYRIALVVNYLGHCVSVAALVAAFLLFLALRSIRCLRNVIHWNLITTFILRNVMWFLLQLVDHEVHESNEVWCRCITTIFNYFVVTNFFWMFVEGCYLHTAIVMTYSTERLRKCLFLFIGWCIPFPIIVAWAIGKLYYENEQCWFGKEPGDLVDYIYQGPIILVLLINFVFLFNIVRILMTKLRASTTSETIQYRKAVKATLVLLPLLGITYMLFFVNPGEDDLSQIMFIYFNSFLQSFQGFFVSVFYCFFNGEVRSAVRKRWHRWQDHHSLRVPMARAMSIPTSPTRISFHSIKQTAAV
T4 sequence (P24387 whole entry): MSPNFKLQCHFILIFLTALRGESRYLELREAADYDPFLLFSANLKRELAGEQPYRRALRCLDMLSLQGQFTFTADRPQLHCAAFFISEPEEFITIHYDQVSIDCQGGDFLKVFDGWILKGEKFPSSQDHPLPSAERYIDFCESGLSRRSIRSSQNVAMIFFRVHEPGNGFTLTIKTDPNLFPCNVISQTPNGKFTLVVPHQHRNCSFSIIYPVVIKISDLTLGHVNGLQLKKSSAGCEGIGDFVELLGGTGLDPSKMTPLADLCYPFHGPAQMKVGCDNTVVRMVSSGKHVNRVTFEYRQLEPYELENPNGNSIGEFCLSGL
The test is described as follows: Dose Response confirmation of uHTS hits for small molecule antagonists of the CRF-binding protein and CRF-R2 receptor complex. The test is classed as functional. Conditions: read-out: IC50_Mean.

In test [8] the target is T4, Corticotropin-releasing factor receptor 2/Corticotropin-releasing factor-binding protein. Briefly: activators of CRF receptor 2 with binding protein – uHTS hits, confirmation (AID 602473). As to conditions: read-out: EC50_Mean. It is filed as functional.
The target of test [9] is T5, Rac GTPase-activating protein 1 (Homo sapiens, UniProt Q9H0H5).
T5 sequence (Q9H0H5 whole entry): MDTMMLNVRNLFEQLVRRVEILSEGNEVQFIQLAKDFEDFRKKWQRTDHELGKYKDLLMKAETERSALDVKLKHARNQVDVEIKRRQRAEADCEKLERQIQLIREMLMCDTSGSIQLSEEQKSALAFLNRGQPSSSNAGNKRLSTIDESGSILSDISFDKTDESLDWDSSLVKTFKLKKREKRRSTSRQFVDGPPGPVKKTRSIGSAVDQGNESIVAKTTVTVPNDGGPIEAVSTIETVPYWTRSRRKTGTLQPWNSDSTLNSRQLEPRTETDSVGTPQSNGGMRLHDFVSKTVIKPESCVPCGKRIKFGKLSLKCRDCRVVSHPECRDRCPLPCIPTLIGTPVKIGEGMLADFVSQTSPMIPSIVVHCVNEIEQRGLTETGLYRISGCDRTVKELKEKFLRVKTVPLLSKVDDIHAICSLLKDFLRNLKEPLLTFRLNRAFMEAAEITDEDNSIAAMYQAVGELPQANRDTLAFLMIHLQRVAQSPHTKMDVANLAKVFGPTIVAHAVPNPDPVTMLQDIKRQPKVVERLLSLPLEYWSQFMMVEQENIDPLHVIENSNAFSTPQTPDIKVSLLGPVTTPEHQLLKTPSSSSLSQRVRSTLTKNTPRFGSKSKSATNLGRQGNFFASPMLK
The test is described as follows: MgcRacGAP GTPase-activating activity inhibitors, confirmation, biochemical, ADP Hunter fluorescence, primary and confirmatory (AID 624330). It is filed as functional.

Test [10] in a line: P. falciparum Dd2 growth inhibitors, dose response, SYBR Green, cherry-picked samples (AID 1159567). It is filed as functional, cell-based.

Calls of active or inactive are those of the source.

In the case of `Cc1ccc(OCCCC(=O)Nc2ccccc2C(F)(F)F)cc1`, in [1], the IC50 is reported as > 54 µM (not active). The AC50 at Cytochrome P450 3A4 was 15.8 µM (inconclusive). Regarding `CCOC(=O)C1(CCOc2ccccc2)CCN(Cc2ccc(OC)c(COC)c2)CC1`, the values for the AC50 in [2], in [3] and in test [4] were 3.87 µM (active), 32.5 µM (active) and 20.5 µM (active), respectively. On to `CCCCCCCCNC(=O)C(CCC(=O)OCc1ccccc1)NC(C)=O` (stereo not given), for which, on Protein skinhead-1, the IC50 was > 100 µM (inactive). Take `O=C(COC(=O)Cn1cnc2ccccc21)Nc1ccc2c(c1)C(=O)c1ccccc1C2=O`: the IC50 in test [1] was 6.69 µM (active). For `COc1ccc(C(=O)Cn2c(C(=O)/C=C/c3ccccc3)nc3ccccc32)cc1`, the EC50 in test [5] is 4.59 µM (active). The AC50 in test [2] is 4.47 µM (active); in [3], 59.1 µM (active). On to `O=C(NN=Cc1c(O)ccc2ccccc12)c1ccc[n+](CCO)c1`, for which the IC50 at Nonstructural protein 1 is 3.07 µM (active). As for `CCC(=O)Nc1nc(CC(=O)Nc2ccccc2OC)cs1`, at Protein skinhead-1, the IC50 was > 100 µM (inactive). In the case of `CN(C)c1ccc(NC(=O)CN2CCC(N3CCCCC3)CC2)cc1`, on Large T antigen, the IC50 is 22.9 µM (active). Consider `COC(=O)c1ccc(CSc2nc(-c3ccccc3)cs2)o1`, for which the IC50 in test [1] is reported as 3.49 µM (not active). Still for that read-out and setting: under `COc1ccc(C(c2c(O)cc(C)oc2=O)c2c(O)cc(C)oc2=O)cc1` stands 1.45 µM (not active).

Take `C=CCn1c(CC(=O)Nc2cccc(OC)c2)nnc1SCC(=O)NC1CCCCC1`: at Protein skinhead-1, the IC50 is > 100 µM (inactive). On the same count and under the same terms, under `O=C(Nc1ccc2c(c1)OCO2)c1cccc(F)c1` stands > 100 µM (inactive). `Cc1ccc2nc(O)c(N=C(N)S)nc2c1`: the IC50 in [6] is > 20 µM (inactive). Also, the AC50 on Cytochrome P450 2C9 was 10 µM (inconclusive). On to `COc1ccc(-c2ccc(Nc3ccc(S(=O)(=O)N4CCCC4)cc3)nn2)cc1OC`, for which the IC50 in the test on H9c2 was > 79 µM (inactive). Besides, the results for the AC50 in test [2] and in [4] were 20.1 µM (active) and 27.6 µM (active), respectively.

For the compound `COc1ccc(NS(=O)(=O)c2ccc3c(c2)n(C)c(=O)n3C)cc1`, the IC50 on Protein skinhead-1 was > 100 µM (inactive). Consider `Cn1c(=O)cc(OCCCC(=O)NCCN2CCN(c3ccccc3F)CC2)c2ccccc21`, for which the IC50 was > 20 µM (inactive) in test [6] and > 47.1 µM (inactive) in test [7]. The EC50 in test [8] was > 53 µM (inactive). In the case of `NC1=NC[C@H](Cc2ccccc2)N1CCc1cc(C(F)(F)F)cc(C(F)(F)F)c1`, the IC50 in test [6] was > 20 µM (inactive). As for `CN1CCN(S(=O)(=O)c2ccc(N(C)Cc3ccc(C(F)(F)F)cc3)c([N+](=O)[O-])c2)CC1`, the figures for the AC50 in test [2], in test [3] and in test [4] were 6.3 µM (active), 45.9 µM (active) and 17.6 µM (active), respectively. Consider `CC[C@@H](C)[C@@H]1CN([C@@H](C)CN2CCC[C@H]2CN2C(N)=NC[C@H]2CC(C)C)C(=N)N1CCc1ccc(Cl)c(Cl)c1`, for which the IC50 in test [6] was > 20 µM (inactive). The same measure, in the same setting: with `c1ccc2c(CCN3CCNC[C@H]3Cc3cccc4ccccc34)cccc2c1` the figure was > 20 µM (inactive); with `Cc1ccc(OCCCC(=O)Nc2ccc(S(=O)(=O)N3CCOCC3)cc2)cc1`, > 20 µM (inactive). As for `CCOC(=O)C1=C(COC(=O)c2ccc(Cl)cc2[N+](=O)[O-])NC(=O)NC1C` (stereo not given), the IC50 at Protein skinhead-1 was > 100 µM (inactive).

As to `CC(C)NC(=O)CN(C)S(=O)(=O)c1ccc(F)cc1`, the IC50 at Protein skinhead-1 is > 100 µM (inactive).

Regarding `Cc1ccccc1-c1nnc(S)n1/N=C/C=C/c1ccco1`, the IC50 at Large T antigen was 53 µM (active). Same read-out and setting: under `Cc1cc(-c2nnc(S)n2/N=C/C=C/c2ccco2)[nH]n1` stands 32.1 µM (active). On to `O=[N+]([O-])c1cccc(S(=O)(=O)N/N=C/c2ccc(O)cc2)c1`, for which the IC50 on Large T antigen was 10.6 µM (active); in [9] it was 49.5 µM (active). Turning to `Cc1cccc(S(=O)(=O)N2C[C@@H]3N[C@H](C2)[C@@H]3c2ccc(-c3cccnc3)cc2)c1`, the AC50 in test [10] was 6 µM (active). The same measure, in the same setting: with `CCCN(C)C[C@H]1Oc2cc(C#Cc3cccnc3)ccc2S(=O)(=O)N([C@H](C)CO)C[C@H]1C` the figure was 3.19 µM (active); with `Cc1ccc(-c2ccc([C@H]3[C@@H](CO)N4C(=O)CN(C(=O)Nc5cccc(F)c5)C[C@H]34)cc2)cc1`, 6.09 µM (active); with `CCS(=O)(=O)N1CCC2(CC1)CN(Cc1ccc3c(c1)OCO3)[C@H](CO)c1[nH]c3cc(OC)ccc3c12`, 5.03 µM (active). Take `C[C@@H]1CN([C@H](C)CO)C(=O)c2c(c3ccccc3n2C)-c2ccccc2CO[C@@H]1CN(C)C(=O)c1cc(Cl)cc(Cl)c1`: the AC50 in [10] was 3.06 µM (active).

Regarding `N#CC(C#N)=C(N)/C(C#N)=C/c1cc(O)c(O)c(O)c1` [TYRPHOSTIN 51], at Large T antigen, the IC50 is 19.8 µM (active).

These data come from ChEMBL document CHEMBL1201862, “PubChem BioAssay data set” (2004).
